The text below walks through data of patent US20220331267A1, “METHODS AND COMPOSITIONS FOR TREATMENT OF DEMYELINATING DISORDERS” (Rush University Medical Center, priority 2019, published 2022).

Test [1] addresses T1, GFP-PPARβ LBD (Homo sapiens, UniProt Q03181).
T1 construct: incubated with recombinant GFP-PPARα LBD and GFP-PPARβ LBD proteins
T1 sequence (Q03181 211-439 limits assumed): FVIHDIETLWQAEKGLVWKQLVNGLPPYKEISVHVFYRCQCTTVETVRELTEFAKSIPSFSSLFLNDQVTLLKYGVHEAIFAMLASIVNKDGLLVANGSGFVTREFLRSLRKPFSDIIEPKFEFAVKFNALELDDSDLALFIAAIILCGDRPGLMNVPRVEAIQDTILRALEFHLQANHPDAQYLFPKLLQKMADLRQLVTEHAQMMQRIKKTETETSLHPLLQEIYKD
The test can be described thus: GFP-affinity purification of cerebellar lysate with GFP-PPARβ LBD, then EI-GCMS. The class given is binding. The following applies: PPARβ pulled-down cerebellar lysate.
Protocol: To test that, we performed a GFP-based affinity purification procedure (25,29) in which cerebellar lysate of wild-type cerebellum was incubated with recombinant GFP-PPARα LBD and GFP-PPARβ LBD proteins, then passed through GFP column, eluted, fractionated with chloroform-methanol procedure, and finally analyzed for small molecules in the chloroform fraction with electron ionization gas chromatography (EI-GCMS) method as described elsewhere (29). […] A part of the eluted fraction was electrophoresed and stained with Coomassie blue to nullify the loading error of GFP-PPARαLBD and GFP-PPARβ LBD used for affinity purification.
GCMS analyses: Ligand detection: A JEOL GCMate II (JEOL USA, Peabody Mass.) mass spectrometer was used in ligand detection experiments. The gas chromatograph (GC) was an Agilent 6890Plus (Wilmington Del.) equipped with a G1513A auto-injector with 100 vial sample tray connected to a G1512A controller. The gas chromatography column was a fused silica capillary column with a nonpolar 5% phenyl 95% dimethylpolysiloxane phase (Agilent HP-5 ms), 30 meters long, 0.25 mm internal diameter, 0.25 μm film thickness. The carrier gas was Helium (99.9995% Research Grade) run through a STG triple filter (Restek Corp.) at a constant flow rate 1.1 mL/min. […]

Test [2] has as its system mouse primary OPCs. The test can be described thus: Double immunofluorescence (NG2/MBP, A2B5/PLP): differentiation of OPCs to oligodendrocytes. The class given is cell-based. The following applies: 1 μM DBB, 0.5 μM DBP, 0.5 μM MePA, 24 hrs. Here is the method:
(§1) FIG. 1A-1T. The role of DBB, DBP and MePA in the differentiation of OPC into oligodendrocytes and myelination. […] Briefly, mouse primary OPCs were treated with different concentrations of molecules for 1 hr, lysed and measured for DNA probe binding activity of PPARβ. […] Benzene was included as negative control. **p<0.01 vs. control for PLP, MOG, MBP, and CNPase. Results are mean±SD of three independent experiments. (FIG. 1G) Immunoblot followed by (FIG. 1H) relative densitometric analyses of PLP and MBP in mouse primary OPCs treated with increasing concentrations of DBB for 18 hrs. Band intensity was measured with image J software and then normalized with respective actin band. *p<0.05 (=0.041) vs. PLP control and *p<0.05 (=0.026) vs. MBP control. […] (N) Mean fluorescence intensity (MFI) of MBP was measured from total 15 cells per group with three cells from 5 different images per group. […] (FIG. 1Q) Mean fluorescence intensity (MFI) of MBP was measured from total 15 cells per group with three cells from 5 different images per group. […] (FIG. 1T) Numbers of MBP-ir cells of different treatment groups were counted per sq.mm of nanofiber matrix and presented as a histogram. […]
DBB, DBP and MePA stimulate the differentiation of OPC to oligodendrocytes and promote myelination. […] After that, cells were lysed and assessed for PPRE-luciferase activity. […]

Test [3] addresses T2, GFP-PPARα LBD (Homo sapiens, UniProt Q07869).
T2 construct: incubated with recombinant GFP-PPARα LBD and GFP-PPARβ LBD proteins
T2 sequence (Q07869 239-466 limits assumed): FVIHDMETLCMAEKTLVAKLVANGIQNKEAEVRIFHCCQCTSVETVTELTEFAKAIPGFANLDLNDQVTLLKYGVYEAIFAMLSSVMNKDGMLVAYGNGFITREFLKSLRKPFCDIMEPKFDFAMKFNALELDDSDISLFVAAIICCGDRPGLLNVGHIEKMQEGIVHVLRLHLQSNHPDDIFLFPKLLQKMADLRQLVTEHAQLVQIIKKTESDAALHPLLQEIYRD
As to the kind of experiment: GFP-affinity purification of cerebellar lysate with GFP-PPARα LBD, then EI-GCMS. The class given is binding. The settings on record: PPARα pulled-down cerebellar lysate. The source says:
Identification of unique cerebellar ligands of PPARβ: PPARβ regulates the expression of myelin genes in vitro in cultured oligodendrocytes (19). However, it is not known if PPARβ regulates the expression of these genes in cerebellum, one of the heavily myelinated regions of the brain. To test the expression of myelin proteins, first we performed dual immunofluorescence analyses of myelin marker MBP together with PPARβ in the cerebellar tissue of wild-type (n=3), Pparb-null (n=3) and Ppara-null (n=3) mice. […] Moreover, DAB immunostaining of MBP and immunoblot analyses of other myelin genes including PLP and MOG have corroborated that PPARβ indeed is involved in the expression of myelin genes in cerebellum. […] To test that, we performed a GFP-based affinity purification procedure (25,29) in which cerebellar lysate of wild-type cerebellum was incubated with recombinant GFP-PPARα LBD and GFP-PPARβ LBD proteins, then passed through GFP column, eluted, fractionated with chloroform-methanol procedure, and finally analyzed for small molecules in the chloroform fraction with electron ionization gas chromatography (EI-GCMS) method as described elsewhere (29). […] Accordingly, we detected two matching bands of both GFP-PPARαLBD and GFP-PPARβLBD, both having mol. wt. of 64 kDa, negating the possibility of unequal loading of sample in MS column. […]

Test [4] deals with mouse primary OPCs. As to the kind of experiment: Myelination of OPCs on polycaprolactone nanofiber matrix (MBP staining). The class given is cell-based. The settings on record: 1 μM DBB, 0.5 μM DBP, 0.5 μM MePA. The procedure:
as §1
The essential role of PPARβ in DBB-, DBP- and MePa-mediated differentiation of OPCs to oligodendrocytes and myelination. […] After that, PPRE-luciferase activity was assessed. […]

Test [5] addresses T3, GFPflpparβ (Mus musculus, UniProt P35396).
T3 construct: host or cells: Pparb-null mouse primary OPCs (lentiviral transduction)
T3 sequence (P35396 1-440): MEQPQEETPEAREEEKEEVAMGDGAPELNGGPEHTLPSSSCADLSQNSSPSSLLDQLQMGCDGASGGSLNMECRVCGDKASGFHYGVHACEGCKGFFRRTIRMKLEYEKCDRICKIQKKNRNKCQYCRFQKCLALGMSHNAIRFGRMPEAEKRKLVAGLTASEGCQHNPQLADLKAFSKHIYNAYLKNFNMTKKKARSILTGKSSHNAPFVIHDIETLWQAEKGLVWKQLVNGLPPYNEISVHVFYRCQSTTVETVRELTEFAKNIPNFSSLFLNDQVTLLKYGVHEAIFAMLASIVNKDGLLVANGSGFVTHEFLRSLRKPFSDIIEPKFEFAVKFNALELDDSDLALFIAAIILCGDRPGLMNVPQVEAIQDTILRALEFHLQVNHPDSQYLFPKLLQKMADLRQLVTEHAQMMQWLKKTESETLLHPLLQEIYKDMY
The test can be described thus: GFP-affinity purification and GCMS of Pparb-null OPCs transduced with GFPflpparβ. The class given is binding. The source says: Therefore, next, we wanted to confirm these interactions in vitro in a cell-bound system. To test that, Pparb-null mouse primary OPCs were isolated from P1 murine neonates, infected with viral particles of GFP, GFPflpparb, GFPV304Mpparb, GFPH412Lpparb constructs for 48 hrs. After that, OPCs were homogenized, passed through the GFP-affinity column, eluted, fractionated with chloroform-methanol, and finally analyzed with GCMS to quantify these ligands. […] Throughout these analyses, we used dodecane as an internal standard.
Sample preparation: After treatment, mouse primary OPCs were homogenized in ice-cold nondetergent hypotonic buffer [10 mM HEPES (pH 7.9), 1.5 mM MgCl2, 10 mM KCl, 100 mM DTT, protease and phosphatase inhibitor cocktail]. After 10 min of additional incubation in the hypotonic buffer, the homogenate was centrifuged at 8,000 g at 4° C. for 10 min. […] The organic phase was collected, evaporated in the speedvac, reconstituted with 30 μL chloroform, and finally analyzed with GCMS. […] After that, the eluate was collected from the column with 5M NaCl solution, concentrated with PD-10 desalting column and analyzed for GCMS.

The target in test [6] is T4, PPARβ LBD (Homo sapiens, UniProt Q03181).
T4 sequence (Q03181 211-439 limits assumed): T1 sequence (Q03181 211-439 limits assumed)
As to the kind of experiment: TR-FRET (Lanthascreen PPAR-β coactivator assay). On the technique in general: TR-FRET usually uses a lanthanide donor and a delayed reading to cut background.
Protocol: The shift of each melting curve was calculated by subtracting the melting temperature (Tm) of PPARβ protein+ligand with Tm of PPARβ protein alone. Any shift (ΔTm) with more than 2° C. would be considered as significant.
TR-FRET analysis: TR-FRET assay was performed using Lanthascreen TR-FRET PPAR-β coactivator assay kit (Cat #PV4685). […] The entire reaction was set up in corning 96 well-plate followed by incubation in a dark place for 30 mins, and then analyzed “Victor X5” machine equipped with dichroic mirror. The excitation wavelength and emission wavelength were set at 340 nm and 540 nm wavelength respectively.

[7] abbreviates: adjusted to internal standard peak.

Molecules are shown by their SMILES.

Broadly, the EC50 is the concentration needed to bring the measured effect to its halfway point. Take `CCCCCCCCCCCCCCCC(=O)OC` [MePA, Methyl palmitate]: the “% RA” value in test [1] worked out at 40.678%; in test [3], 0%. Also, the Relative abundance in test [1] (setting [7]) came out at 0.4068; in test [3] (setting [7]), 0. Also, the “differentiation of OPCs into oligodendrocytes” value in test [2] is listed as “stimulate the differentiation of OPCs into oligodendrocytes”. In addition, the “MBP-ir cell bodies per sq.mm of nanofiber matrix (maturation of oligodendrocytes)” value in test [4] is listed as “stimulated the maturation of oligodendrocytes”. Further, the “myelin formation on nanofibers” value in test [4] (24 hrs) is reported as “promote myelin formation”. Besides, the “Adjusted Peak Area” value in test [5] (ligand peak area divided by dodecane peak) turned out to be 0.0108. In test [5] (relative abundance), the RA is recorded as 1. The molecule further had an EC50 in test [6] of 72 nM.
